According to ChEMBL document CHEMBL3885881, “DrugMatrix”:

Species: Rattus norvegicus
Assay: DrugMatrix - Regimen: Daily Repeat
Format: toxicity, organism-based, Sprague-Dawley
Parameters: regimen Daily Repeat, gender Male, age 6-8 weeks
Settings: in vivo, iv, vehicle 100 % SALINE; for ABSOLUTE BASOPHIL / ABSOLUTE EOSINOPHIL / ABSOLUTE LYMPHOCYTE / ABSOLUTE MONOCYTE / ABSOLUTE SEGMENTED NEUTROPHIL / BASOPHIL / EOSINOPHIL / ERYTHROCYTE COUNT / HEMATOCRIT / HEMOGLOBIN / LEUKOCYTE COUNT / LYMPHOCYTE / MEAN CORPUSCULAR HEMOGLOBIN / MEAN CORPUSCULAR HEMOGLOBIN CONCENTRATION / MEAN CORPUSCULAR VOLUME / MONOCYTE / NEUTROPHIL / NUCLEATED RED BLOOD CELLS: tissue Blood; for ALANINE AMINOTRANSFERASE / ALKALINE PHOSPHATASE / ASPARTATE AMINOTRANSFERASE / BLOOD UREA NITROGEN / CARBON DIOXIDE / CHOLESTEROL / CREATINE PHOSPHOKINASE / CREATININE / GLUCOSE / LACTATE DEHYDROGENASE / LIPASE / SODIUM / TOTAL BILIRUBIN / TOTAL PROTEIN / URIC ACID: tissue Plasma
[1] = 0 mg/kg, 72 h, dose level Control, time 3 day
[2] = 0 mg/kg, 120 h, dose level Control, time 5 day
[3] = […], 72 h, dose 0.27 mg/Kg, dose level Low, time 3 day
[4] = […], 72 h, dose 2.7 mg/Kg, dose level High, time 3 day

Compound: COc1cccc2c1C(=O)c1c(O)c3c(c(O)c1C2=O)C[C@@](O)(C(=O)CO)C[C@@H]3O[C@H]1C[C@H](N)[C@@H](O)[C@H](C)O1 [EPIRUBICIN]
- ABSOLUTE BASOPHIL [1]: 0 CELLS/uL
- ABSOLUTE EOSINOPHIL [1]: 23.17 CELLS/uL
- ABSOLUTE LYMPHOCYTE [1]: 12448.83 CELLS/uL
- ABSOLUTE MONOCYTE [1]: 259.5 CELLS/uL
- ABSOLUTE SEGMENTED NEUTROPHIL [1]: 1635.17 CELLS/uL
- BASOPHIL [1]: 0%
- EOSINOPHIL [1]: 0.17%
- ERYTHROCYTE COUNT [1]: 5.35 x10E6/uL
- HEMATOCRIT [1]: 34.85%
- HEMOGLOBIN [1]: 13.72 G/DL
- LEUKOCYTE COUNT [1]: 14.37 x10E3/uL
- LYMPHOCYTE [1]: 86.5%
- MEAN CORPUSCULAR HEMOGLOBIN [1]: 25.67 pg
- MEAN CORPUSCULAR HEMOGLOBIN CONCENTRATION [1]: 39.38 G/DL
- MEAN CORPUSCULAR VOLUME [1]: 65.2 fL
- MONOCYTE [1]: 1.83%
- NEUTROPHIL [1]: 11.5%
- NUCLEATED RED BLOOD CELLS [1]: 0 /100WBC
- ALANINE AMINOTRANSFERASE [1]: 56.5 u/L
- ALKALINE PHOSPHATASE [1]: 334 u/L
- ASPARTATE AMINOTRANSFERASE [1]: 85.5 u/L
- BLOOD UREA NITROGEN [1]: 16.33 mg/dL
- CARBON DIOXIDE [1]: 26.5 mmol/L
- CHOLESTEROL [1]: 70.33 mg/dL
- CREATINE PHOSPHOKINASE [1]: 339.5 u/L
- CREATININE [1]: 0.18 mg/dL
- GLUCOSE [1]: 155.17 mg/dL
- LACTATE DEHYDROGENASE [1]: 382 u/L
- LIPASE [1]: 9.5 u/L
- SODIUM [1]: 143.87 MEQ/L
- TOTAL BILIRUBIN [1]: 0.2 mg/dL
- TOTAL PROTEIN [1]: 5.98 G/DL
- URIC ACID [1]: 1.53 mg/dL
- ABSOLUTE BASOPHIL [2]: 0 CELLS/uL
- ABSOLUTE EOSINOPHIL [2]: 16.17 CELLS/uL
- ABSOLUTE LYMPHOCYTE [2]: 10653.67 CELLS/uL
- ABSOLUTE MONOCYTE [2]: 17.17 CELLS/uL
- ABSOLUTE SEGMENTED NEUTROPHIL [2]: 746.33 CELLS/uL
- BASOPHIL [2]: 0%
- EOSINOPHIL [2]: 0.17%
- ERYTHROCYTE COUNT [2]: 5.88 x10E6/uL
- HEMATOCRIT [2]: 36.68%
- HEMOGLOBIN [2]: 14.6 G/DL
- LEUKOCYTE COUNT [2]: 11.43 x10E3/uL
- LYMPHOCYTE [2]: 91.83%
- MEAN CORPUSCULAR HEMOGLOBIN [2]: 24.85 pg
- MEAN CORPUSCULAR HEMOGLOBIN CONCENTRATION [2]: 39.8 G/DL
- MEAN CORPUSCULAR VOLUME [2]: 62.47 fL
- MONOCYTE [2]: 0.17%
- NEUTROPHIL [2]: 7.83%
- NUCLEATED RED BLOOD CELLS [2]: 0 /100WBC
- ALANINE AMINOTRANSFERASE [2]: 45.5 u/L
- ALKALINE PHOSPHATASE [2]: 330.17 u/L
- ASPARTATE AMINOTRANSFERASE [2]: 93.33 u/L
- BLOOD UREA NITROGEN [2]: 18 mg/dL
- CARBON DIOXIDE [2]: 25.5 mmol/L
- CHOLESTEROL [2]: 73.5 mg/dL
- CREATINE PHOSPHOKINASE [2]: 434 u/L
- CREATININE [2]: 0.2 mg/dL
- GLUCOSE [2]: 148.83 mg/dL
- LACTATE DEHYDROGENASE [2]: 603.83 u/L
- LIPASE [2]: 10 u/L
- SODIUM [2]: 139.78 MEQ/L
- TOTAL BILIRUBIN [2]: 0.15 mg/dL
- TOTAL PROTEIN [2]: 6.1 G/DL
- URIC ACID [2]: 2.02 mg/dL
- ABSOLUTE BASOPHIL [3]: 0 CELLS/uL
- ABSOLUTE EOSINOPHIL [3]: 28 CELLS/uL
- ABSOLUTE LYMPHOCYTE [3]: 4991.67 CELLS/uL
- ABSOLUTE MONOCYTE [3]: 38 CELLS/uL
- ABSOLUTE SEGMENTED NEUTROPHIL [3]: 375.67 CELLS/uL
- BASOPHIL [3]: 0%
- EOSINOPHIL [3]: 0.67%
- ERYTHROCYTE COUNT [3]: 4.95 x10E6/uL
- HEMATOCRIT [3]: 31.43%
- HEMOGLOBIN [3]: 12.5 G/DL
- LEUKOCYTE COUNT [3]: 5.43 x10E3/uL
- LYMPHOCYTE [3]: 91.67%
- MEAN CORPUSCULAR HEMOGLOBIN [3]: 25.3 pg
- MEAN CORPUSCULAR HEMOGLOBIN CONCENTRATION [3]: 39.8 G/DL
- MEAN CORPUSCULAR VOLUME [3]: 63.57 fL
- MONOCYTE [3]: 0.67%
- NEUTROPHIL [3]: 7%
- NUCLEATED RED BLOOD CELLS [3]: 0 /100WBC
- ABSOLUTE BASOPHIL [4]: 0 CELLS/uL
- ABSOLUTE EOSINOPHIL [4]: 0 CELLS/uL
- ABSOLUTE LYMPHOCYTE [4]: 4049.67 CELLS/uL
- ABSOLUTE MONOCYTE [4]: 29.33 CELLS/uL
- ABSOLUTE SEGMENTED NEUTROPHIL [4]: 387.67 CELLS/uL
- BASOPHIL [4]: 0%
- EOSINOPHIL [4]: 0%
- ERYTHROCYTE COUNT [4]: 5.35 x10E6/uL
- HEMATOCRIT [4]: 33.77%
- HEMOGLOBIN [4]: 13.47 G/DL
- LEUKOCYTE COUNT [4]: 4.47 x10E3/uL
- LYMPHOCYTE [4]: 90.67%
- MEAN CORPUSCULAR HEMOGLOBIN [4]: 25.2 pg
- MEAN CORPUSCULAR HEMOGLOBIN CONCENTRATION [4]: 39.87 G/DL
- MEAN CORPUSCULAR VOLUME [4]: 63.03 fL
